Columns and labels:
Type in all cases: binding
[1] = system: 455 wild-type and mutant human protein and lipid kinases; experiment: KINOMEscan panel summary; details: 1 μM
[2] = target: T1, ACVR1B (Homo sapiens, UniProt P36896); experiment: KINOMEscan; details: read-out: % control activity remaining
T1 construct: purchased Eurofins DiscoverX KINOMEscan
T1 sequence (P36896 24-505): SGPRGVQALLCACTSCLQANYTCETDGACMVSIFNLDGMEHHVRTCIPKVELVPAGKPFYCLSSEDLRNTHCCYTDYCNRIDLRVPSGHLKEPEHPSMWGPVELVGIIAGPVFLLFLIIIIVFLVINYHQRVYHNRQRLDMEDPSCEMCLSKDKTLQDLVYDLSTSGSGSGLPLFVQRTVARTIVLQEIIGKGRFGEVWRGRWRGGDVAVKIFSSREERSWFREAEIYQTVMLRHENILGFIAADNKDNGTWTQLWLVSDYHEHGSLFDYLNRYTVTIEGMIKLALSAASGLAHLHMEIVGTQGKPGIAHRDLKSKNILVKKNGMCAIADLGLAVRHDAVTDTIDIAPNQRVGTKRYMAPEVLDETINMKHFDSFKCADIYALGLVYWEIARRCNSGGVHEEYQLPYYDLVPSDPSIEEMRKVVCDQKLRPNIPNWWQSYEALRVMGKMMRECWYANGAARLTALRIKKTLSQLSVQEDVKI

[3] = target: T2, DCAMKL3 (Homo sapiens, UniProt Q9C098); experiment: KINOMEscan; details: read-out: % control activity remaining
T2 construct: purchased Eurofins DiscoverX KINOMEscan
T2 sequence (Q9C098 1-648): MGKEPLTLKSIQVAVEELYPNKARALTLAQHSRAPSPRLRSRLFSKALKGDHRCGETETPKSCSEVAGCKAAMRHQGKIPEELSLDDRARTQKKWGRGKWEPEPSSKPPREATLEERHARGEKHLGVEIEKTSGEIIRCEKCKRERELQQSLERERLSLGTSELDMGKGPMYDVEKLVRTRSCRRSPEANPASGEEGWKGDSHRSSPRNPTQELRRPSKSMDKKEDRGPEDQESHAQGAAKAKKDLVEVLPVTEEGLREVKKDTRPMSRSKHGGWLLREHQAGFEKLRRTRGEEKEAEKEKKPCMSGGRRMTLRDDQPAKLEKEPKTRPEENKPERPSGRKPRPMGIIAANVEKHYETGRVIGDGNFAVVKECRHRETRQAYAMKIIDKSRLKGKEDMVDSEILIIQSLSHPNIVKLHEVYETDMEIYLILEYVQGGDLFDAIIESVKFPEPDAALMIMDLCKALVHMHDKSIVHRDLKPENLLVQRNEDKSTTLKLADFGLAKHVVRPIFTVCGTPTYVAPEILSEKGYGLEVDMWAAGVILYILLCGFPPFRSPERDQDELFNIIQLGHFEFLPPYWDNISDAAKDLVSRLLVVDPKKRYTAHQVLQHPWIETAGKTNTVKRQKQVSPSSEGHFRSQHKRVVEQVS

[4] = target: T3, DYRK1A (Homo sapiens, UniProt Q13627); experiment: KINOMEscan; details: read-out: % control activity remaining
T3 construct: purchased Eurofins DiscoverX KINOMEscan

[5] = target: T4, ERK1 (Homo sapiens, UniProt P27361); experiment: KINOMEscan; details: read-out: % control activity remaining
T4 construct: purchased Eurofins DiscoverX KINOMEscan

[6] = target: T5, FGFR3(G697C) (Homo sapiens, UniProt P22607, G697C); experiment: KINOMEscan; details: read-out: % control activity remaining
T5 construct: purchased Eurofins DiscoverX KINOMEscan

[7] = target: T6, PIK3CG (Homo sapiens, UniProt P48736); experiment: KINOMEscan; details: read-out: % control activity remaining
T6 construct: purchased Eurofins DiscoverX KINOMEscan

[8] = target: T7, PLK2 (Homo sapiens, UniProt Q9NYY3); experiment: KINOMEscan; details: read-out: % control activity remaining
T7 construct: purchased Eurofins DiscoverX KINOMEscan

[9] = target: T8, PRKG2 (Homo sapiens, UniProt Q13237); experiment: KINOMEscan; details: read-out: % control activity remaining
T8 construct: purchased Eurofins DiscoverX KINOMEscan
T8 sequence (Q13237 1-762): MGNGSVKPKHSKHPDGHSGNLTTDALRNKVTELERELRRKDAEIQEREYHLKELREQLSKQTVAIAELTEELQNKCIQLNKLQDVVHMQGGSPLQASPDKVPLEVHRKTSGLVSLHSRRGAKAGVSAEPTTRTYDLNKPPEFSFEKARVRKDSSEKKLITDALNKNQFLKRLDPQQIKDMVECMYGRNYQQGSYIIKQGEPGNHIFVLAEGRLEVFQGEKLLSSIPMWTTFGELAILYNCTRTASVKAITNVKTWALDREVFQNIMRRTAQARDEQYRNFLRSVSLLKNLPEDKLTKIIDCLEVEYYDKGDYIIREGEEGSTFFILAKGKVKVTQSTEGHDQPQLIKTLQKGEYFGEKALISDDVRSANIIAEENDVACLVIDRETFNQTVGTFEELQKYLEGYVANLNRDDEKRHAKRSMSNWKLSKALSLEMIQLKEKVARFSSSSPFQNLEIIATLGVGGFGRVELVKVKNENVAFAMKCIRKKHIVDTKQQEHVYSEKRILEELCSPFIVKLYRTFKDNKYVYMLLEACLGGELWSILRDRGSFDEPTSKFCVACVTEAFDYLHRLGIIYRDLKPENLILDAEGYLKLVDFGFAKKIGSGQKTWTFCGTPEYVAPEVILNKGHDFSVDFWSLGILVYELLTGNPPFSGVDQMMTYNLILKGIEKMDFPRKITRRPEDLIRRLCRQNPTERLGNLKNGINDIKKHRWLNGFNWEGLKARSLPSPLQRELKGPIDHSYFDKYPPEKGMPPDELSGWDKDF

[10] = target: T9, RIPK2 (Homo sapiens, UniProt O43353); experiment: KINOMEscan; details: read-out: % control activity remaining
T9 construct: purchased Eurofins DiscoverX KINOMEscan

[11] = target: T10, STK33 (Homo sapiens, UniProt Q9BYT3); experiment: KINOMEscan; details: read-out: % control activity remaining
T10 construct: purchased Eurofins DiscoverX KINOMEscan
T10 sequence (Q9BYT3 whole entry): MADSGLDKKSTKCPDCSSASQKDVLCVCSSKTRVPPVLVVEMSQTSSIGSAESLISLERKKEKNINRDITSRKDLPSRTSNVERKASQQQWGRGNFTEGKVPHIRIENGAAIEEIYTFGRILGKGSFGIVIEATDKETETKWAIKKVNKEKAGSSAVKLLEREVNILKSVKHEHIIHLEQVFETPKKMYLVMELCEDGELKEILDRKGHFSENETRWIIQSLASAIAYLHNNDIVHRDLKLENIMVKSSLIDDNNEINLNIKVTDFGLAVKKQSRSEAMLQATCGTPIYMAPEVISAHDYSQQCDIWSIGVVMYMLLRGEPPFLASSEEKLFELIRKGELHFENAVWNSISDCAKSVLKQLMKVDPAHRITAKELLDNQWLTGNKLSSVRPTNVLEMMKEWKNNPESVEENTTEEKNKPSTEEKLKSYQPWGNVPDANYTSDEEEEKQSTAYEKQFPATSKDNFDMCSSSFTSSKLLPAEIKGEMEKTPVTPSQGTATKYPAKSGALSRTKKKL

T9 sequence (O43353 whole entry): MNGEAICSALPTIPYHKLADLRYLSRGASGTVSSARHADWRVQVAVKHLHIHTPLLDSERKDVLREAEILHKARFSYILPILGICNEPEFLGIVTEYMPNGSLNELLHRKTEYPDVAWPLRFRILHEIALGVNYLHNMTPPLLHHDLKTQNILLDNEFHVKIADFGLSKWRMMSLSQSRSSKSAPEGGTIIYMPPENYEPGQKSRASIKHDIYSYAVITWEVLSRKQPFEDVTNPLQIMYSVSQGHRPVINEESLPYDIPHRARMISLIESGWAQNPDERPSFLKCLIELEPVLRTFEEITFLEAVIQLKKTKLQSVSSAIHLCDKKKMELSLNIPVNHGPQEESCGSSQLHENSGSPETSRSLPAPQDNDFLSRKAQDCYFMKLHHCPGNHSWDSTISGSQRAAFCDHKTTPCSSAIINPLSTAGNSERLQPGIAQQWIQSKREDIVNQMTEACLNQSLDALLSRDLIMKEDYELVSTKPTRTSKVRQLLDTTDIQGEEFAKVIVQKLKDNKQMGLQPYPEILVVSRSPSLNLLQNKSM
T7 sequence (Q9NYY3 whole entry): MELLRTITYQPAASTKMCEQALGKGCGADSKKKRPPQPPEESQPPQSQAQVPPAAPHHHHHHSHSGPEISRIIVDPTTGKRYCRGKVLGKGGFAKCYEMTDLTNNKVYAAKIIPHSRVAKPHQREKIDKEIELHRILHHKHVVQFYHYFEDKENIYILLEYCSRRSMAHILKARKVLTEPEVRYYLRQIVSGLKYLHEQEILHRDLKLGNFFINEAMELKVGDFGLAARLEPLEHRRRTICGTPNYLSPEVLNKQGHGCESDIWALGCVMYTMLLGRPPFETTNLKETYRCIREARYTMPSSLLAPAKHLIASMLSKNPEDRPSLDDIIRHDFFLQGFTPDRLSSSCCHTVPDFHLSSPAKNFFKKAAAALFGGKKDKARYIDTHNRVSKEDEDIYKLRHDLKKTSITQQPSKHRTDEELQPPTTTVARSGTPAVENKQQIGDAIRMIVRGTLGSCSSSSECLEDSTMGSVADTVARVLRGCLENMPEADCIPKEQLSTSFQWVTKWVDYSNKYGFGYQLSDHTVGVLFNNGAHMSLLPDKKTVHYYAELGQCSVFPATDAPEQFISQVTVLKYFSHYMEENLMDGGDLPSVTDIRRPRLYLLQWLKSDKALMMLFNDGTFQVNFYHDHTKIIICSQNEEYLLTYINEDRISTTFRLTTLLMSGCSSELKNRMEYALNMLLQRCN
T6 sequence (P48736 whole entry): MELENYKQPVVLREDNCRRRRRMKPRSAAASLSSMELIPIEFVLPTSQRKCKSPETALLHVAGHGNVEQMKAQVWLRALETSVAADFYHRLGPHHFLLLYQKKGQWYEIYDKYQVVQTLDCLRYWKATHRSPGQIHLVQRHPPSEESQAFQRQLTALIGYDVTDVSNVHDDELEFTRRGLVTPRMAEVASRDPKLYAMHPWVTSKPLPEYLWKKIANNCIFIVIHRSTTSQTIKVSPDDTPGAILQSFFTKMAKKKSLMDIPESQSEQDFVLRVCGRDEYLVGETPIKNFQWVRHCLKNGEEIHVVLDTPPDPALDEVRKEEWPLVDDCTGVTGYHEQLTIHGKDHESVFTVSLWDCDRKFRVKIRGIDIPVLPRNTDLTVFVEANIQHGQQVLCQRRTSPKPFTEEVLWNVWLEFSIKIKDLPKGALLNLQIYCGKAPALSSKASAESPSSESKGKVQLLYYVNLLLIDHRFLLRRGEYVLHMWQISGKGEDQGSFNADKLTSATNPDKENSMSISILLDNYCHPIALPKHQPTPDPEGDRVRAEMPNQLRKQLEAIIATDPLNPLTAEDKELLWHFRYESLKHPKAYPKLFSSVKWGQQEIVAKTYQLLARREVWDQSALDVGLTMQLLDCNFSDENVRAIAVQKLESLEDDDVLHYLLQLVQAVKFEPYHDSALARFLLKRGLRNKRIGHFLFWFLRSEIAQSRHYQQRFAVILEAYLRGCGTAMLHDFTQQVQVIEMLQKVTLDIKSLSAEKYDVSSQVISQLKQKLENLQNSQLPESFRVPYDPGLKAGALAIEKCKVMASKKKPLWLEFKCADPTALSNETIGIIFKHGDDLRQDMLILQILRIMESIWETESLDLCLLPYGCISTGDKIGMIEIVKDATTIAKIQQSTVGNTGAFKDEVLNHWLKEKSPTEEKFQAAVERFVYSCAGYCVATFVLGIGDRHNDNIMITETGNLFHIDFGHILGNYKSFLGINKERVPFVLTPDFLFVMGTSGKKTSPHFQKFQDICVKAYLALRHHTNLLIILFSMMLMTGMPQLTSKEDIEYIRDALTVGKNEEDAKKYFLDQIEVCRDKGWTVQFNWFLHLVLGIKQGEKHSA
T4 sequence (P27361 whole entry): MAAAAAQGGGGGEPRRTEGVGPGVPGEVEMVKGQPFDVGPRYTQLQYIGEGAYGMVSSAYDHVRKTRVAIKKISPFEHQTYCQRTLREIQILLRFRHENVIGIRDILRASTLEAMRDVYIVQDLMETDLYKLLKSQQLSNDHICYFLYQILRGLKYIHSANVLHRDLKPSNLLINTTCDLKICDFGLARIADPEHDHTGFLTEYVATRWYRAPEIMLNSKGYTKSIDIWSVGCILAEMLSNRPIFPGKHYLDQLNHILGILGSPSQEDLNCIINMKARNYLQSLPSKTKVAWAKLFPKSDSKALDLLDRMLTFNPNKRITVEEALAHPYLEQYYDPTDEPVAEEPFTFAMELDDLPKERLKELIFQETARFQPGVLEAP
T5 sequence (P22607 23-806 G697C): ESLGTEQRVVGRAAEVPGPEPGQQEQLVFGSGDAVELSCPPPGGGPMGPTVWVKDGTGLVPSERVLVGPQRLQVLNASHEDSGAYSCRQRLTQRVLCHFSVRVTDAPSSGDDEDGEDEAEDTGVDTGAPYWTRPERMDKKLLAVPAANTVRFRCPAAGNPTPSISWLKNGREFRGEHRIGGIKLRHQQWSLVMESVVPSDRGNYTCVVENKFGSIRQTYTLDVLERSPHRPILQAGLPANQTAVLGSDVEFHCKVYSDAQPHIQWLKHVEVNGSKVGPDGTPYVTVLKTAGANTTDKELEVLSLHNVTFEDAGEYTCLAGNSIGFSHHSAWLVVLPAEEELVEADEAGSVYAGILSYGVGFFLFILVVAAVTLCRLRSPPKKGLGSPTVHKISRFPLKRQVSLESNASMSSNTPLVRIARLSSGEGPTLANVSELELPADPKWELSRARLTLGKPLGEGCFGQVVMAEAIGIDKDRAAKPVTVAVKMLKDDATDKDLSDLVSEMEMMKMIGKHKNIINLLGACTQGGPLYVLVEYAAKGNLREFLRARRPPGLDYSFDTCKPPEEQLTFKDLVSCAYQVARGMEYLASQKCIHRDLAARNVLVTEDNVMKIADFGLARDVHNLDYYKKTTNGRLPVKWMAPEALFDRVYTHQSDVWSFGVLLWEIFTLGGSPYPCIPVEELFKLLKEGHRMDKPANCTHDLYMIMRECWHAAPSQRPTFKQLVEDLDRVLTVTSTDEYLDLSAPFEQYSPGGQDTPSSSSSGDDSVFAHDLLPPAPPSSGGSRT

Compound	kinases with >70% inhibition / wild-type and mutant kinases tested [1]	remaining binding at 1 µM [2]	remaining binding at 1 µM [3]	remaining binding at 1 µM [4]	remaining binding at 1 µM [5]	remaining binding at 1 µM [6]	remaining binding at 1 µM [7]	remaining binding at 1 µM [8]	remaining binding at 1 µM [9]	remaining binding at 1 µM [10]	remaining binding at 1 µM [11]
Clc1cc(NCC2CC2)c2ncc(-c3ccc4[nH]ncc4c3)n2n1 [compound 2, 6-Chloro-N-(cyclopropylmethyl)-3-(1H-indazol-5-yl)imidazo[1,2-b]pyridazin-8-amine]	26/455	89%	100%	5.1%	95%	78%	78%	66%	84%	88%	47%
O=C(CN1CCOCC1)N[C@H]1CC[C@H](Nc2cc(Cl)nn3c(-c4ccc5[nH]ncc5c4)cnc23)CC1 [compound 26]	54/455	91%	100%	0.35%	100%	85%	100%	100%	64%	61%	25%
CN1CCC(CNc2cc(Cl)nn3c(-c4cc5nc(Nc6ccccc6)[nH]c5cc4F)cnc23)CC1 [compound 31, 6-Chloro-3-(6-fluoro-2-(phenylamino)-1H-benzo[d]imidazol-5-yl)-N-((1-methylpiperidin-4-yl)methyl)imidazo[1,2-b]pyridazin-8-amine]	4/455	100%	100%	71%	92%	91%	100%	90%	64%	100%	100%
